Here are results for 39 compounds from ChEMBL document CHEMBL3875210, “Synthesis, functionalization and biological activity of arylated derivatives of (+)-estrone” (Bioorg Med Chem, 2017).

One assay concerns the target Pancreatic triacylglycerol lipase (Sus scrofa) (UniProt P00591). In words: Inhibition of porcine pancreatic lipase using p-nitrophenylbutyrate as substrate preincubated for 10 mins followed by substrate addition measured after 20 mins.
Settings: not given
On to `C[C@]12CC[C@@H]3c4cc(-c5ccc(OC(F)(F)F)cc5)c(O)c(-c5ccc(OC(F)(F)F)cc5)c4CC[C@H]3[C@@H]1CCC2=O`, for which the IC50 (in general, the concentration that inhibits the measured activity by half) worked out at 1.21 µM.
Still for that read-out and setting: for `C[C@]12CC[C@@H]3c4cc(-c5ccccc5)c(O)c(-c5ccccc5)c4CC[C@H]3[C@@H]1CCC2=O` the value was 25.6 µM.
Still for that read-out and setting: with `C[C@]12CC[C@@H]3c4ccc(O)c(-c5ccccc5)c4CC[C@H]3[C@@H]1CCC2=O` the figure was 1.54 µM; with `Cc1cc(C)cc(-c2cc3c(c(-c4cc(C)cc(C)c4)c2O)CC[C@@H]2[C@@H]3CC[C@]3(C)C(=O)CC[C@@H]23)c1`, 24.1 µM; with `CC(C)(C)c1ccc(-c2cc3c(cc2O)CC[C@@H]2[C@@H]3CC[C@]3(C)C(=O)CC[C@@H]23)cc1`, 5.66 µM.
`C[C@]12CC[C@@H]3c4cc(-c5ccc(C(F)(F)F)cc5)c(O)cc4CC[C@H]3[C@@H]1CCC2=O`: the IC50 was found to be 16.3 µM.
On the same count and under the same terms, for `C[C@]12CC[C@@H]3c4ccc(O)c(-c5ccc(OC(F)(F)F)cc5)c4CC[C@H]3[C@@H]1CCC2=O` the value was 6.42 µM; for `C[C@]12CC[C@@H]3c4cc(-c5ccc(F)cc5)c(O)c(-c5ccc(F)cc5)c4CC[C@H]3[C@@H]1CCC2=O`, 0.82 µM; for `C[C@]12CC[C@@H]3c4ccc(O)c(-c5cccc(F)c5)c4CC[C@H]3[C@@H]1CCC2=O`, 1.34 µM.
On the same count and under the same terms, with `C[C@]12CC[C@@H]3c4cc(-c5ccc(OC(F)(F)F)cc5)c(O)cc4CC[C@H]3[C@@H]1CCC2=O` the figure was 2.54 µM; with `C[C@]12CC[C@@H]3c4cc(-c5ccccc5F)c5oc6ccccc6c5c4CC[C@H]3[C@@H]1CCC2=O`, 0.93 µM; with `C[C@]12CC[C@@H]3c4cc(-c5cccc(F)c5)c(O)cc4CC[C@H]3[C@@H]1CCC2=O`, 16.3 µM.
Still for that read-out and setting: with `C[C@]12CC[C@@H]3c4ccc5oc(=O)c6ccccc6c5c4CC[C@H]3[C@@H]1CCC2=O` the figure was 1.36 µM; with `CCc1ccc(-c2c(O)ccc3c2CC[C@@H]2[C@@H]3CC[C@]3(C)C(=O)CC[C@@H]23)cc1`, 13.6 µM; with `COc1ccc(-c2cc3c(cc2O)CC[C@@H]2[C@@H]3CC[C@]3(C)C(=O)CC[C@@H]23)cc1`, 12.3 µM.
`C[C@]12CC[C@@H]3c4ccc(O)c(-c5ccc(C(F)(F)F)cc5)c4CC[C@H]3[C@@H]1CCC2=O`: it took 0.82 µM to reach half-maximal inhibition (IC50).
The same measure, in the same setting: for `CC(C)(C)c1ccc(-c2cc3c(c(-c4ccc(C(C)(C)C)cc4)c2O)CC[C@@H]2[C@@H]3CC[C@]3(C)C(=O)CC[C@@H]23)cc1` the value was 8.29 µM; for `COc1ccc(-c2cc3c(c(-c4ccc(OC)cc4)c2O)CC[C@@H]2[C@@H]3CC[C@]3(C)C(=O)CC[C@@H]23)cc1`, 5.28 µM.
Still for that read-out and setting: for `C[C@]12CC[C@@H]3c4cc(-c5cccc(F)c5)c(O)c(-c5cccc(F)c5)c4CC[C@H]3[C@@H]1CCC2=O` the value was 7.19 µM; for `COc1cc(OC)cc(-c2c(O)ccc3c2CC[C@@H]2[C@@H]3CC[C@]3(C)C(=O)CC[C@@H]23)c1`, 59.7 µM; for `CC(C)(C)c1ccc(-c2c(O)ccc3c2CC[C@@H]2[C@@H]3CC[C@]3(C)C(=O)CC[C@@H]23)cc1`, 1.78 µM.
Same read-out and setting: with `COc1cc(OC)cc(-c2cc3c(cc2O)CC[C@@H]2[C@@H]3CC[C@]3(C)C(=O)CC[C@@H]23)c1` the figure was 16.4 µM; with `C[C@]12CC[C@@H]3c4cc(-c5ccc(Cl)cc5)c(O)c(-c5ccc(Cl)cc5)c4CC[C@H]3[C@@H]1CCC2=O`, 1.75 µM.
For `Cc1ccc(-c2cc3c(cc2O)CC[C@@H]2[C@@H]3CC[C@]3(C)C(=O)CC[C@@H]23)cc1`, the half-maximal inhibitory concentration (IC50) was determined as 1.21 µM.

The next assay concerns pancreatic lipase (Sus scrofa). The experiment in a line: Inhibition of pancreatic lipase (unknown origin) at 100 uM using p-nitrophenylbutyrate as substrate preincubated for 10 mins followed by substrate addition measured after 20 mins.
Settings: not given
In the case of `C[C@]12CC[C@@H]3c4cc(-c5ccccc5F)c(O)c(-c5ccccc5F)c4CC[C@H]3[C@@H]1CCC2=O`, the inhibition – broadly, how much of the control response was suppressed – was 43%.
The same measure, in the same setting: with `COc1ccc(-c2cc3c(c(-c4ccc(OC)c(OC)c4OC)c2O)CC[C@@H]2[C@@H]3CC[C@]3(C)C(=O)CC[C@@H]23)c(OC)c1OC` the figure was 37%; with `C[C@]12CC[C@@H]3c4cc(-c5ccccc5)c(O)cc4CC[C@H]3[C@@H]1CCC2=O`, 39%.
Same read-out and setting: with `Cc1ccc(-c2c(O)ccc3c2CC[C@@H]2[C@@H]3CC[C@]3(C)C(=O)CC[C@@H]23)cc1` the figure was 38%; with `COc1ccc(-c2c(O)ccc3c2CC[C@@H]2[C@@H]3CC[C@]3(C)C(=O)CC[C@@H]23)cc1`, 42%; with `C[C@]12CC[C@@H]3c4cc(-c5ccc(C(F)(F)F)cc5)c(O)c(-c5ccc(C(F)(F)F)cc5)c4CC[C@H]3[C@@H]1CCC2=O`, 42%.
On the same count and under the same terms, with `COc1ccc(-c2c(O)ccc3c2CC[C@@H]2[C@@H]3CC[C@]3(C)C(=O)CC[C@@H]23)c(OC)c1OC` the figure was 43%; with `CCc1ccc(-c2cc3c(c(-c4ccc(CC)cc4)c2O)CC[C@@H]2[C@@H]3CC[C@]3(C)C(=O)CC[C@@H]23)cc1`, 41%.
In turn, `C[C@]12CC[C@@H]3c4ccc5oc6ccccc6c5c4CC[C@H]3[C@@H]1CCC2=O` gave an inhibition of 32%.
On to `Cc1ccc(-c2cc3c(c(-c4ccc(C)cc4)c2O)CC[C@@H]2[C@@H]3CC[C@]3(C)C(=O)CC[C@@H]23)cc1`, for which the inhibition amounted to 39%.
The compound `C[C@]12CC[C@@H]3c4ccc(O)c(-c5ccc(Cl)cc5)c4CC[C@H]3[C@@H]1CCC2=O` returned an inhibition of 45%.

Biological target in a further assay: not listed separately
In words: Inhibition of pancreatic lipase (unknown origin) assessed as decrease in release of fatty acid from triolein incubated for 30 mins by phenolphthalein-baed titrimetric method. Also on record: species or system Homo sapiens.
Settings: not given
`CC(C)c1cc2c(c(O)c1O)[C@@]1(C(=O)O)CCCC(C)(C)[C@@H]1CC2` [CARNOSIC ACID]: the IC50 turned out to be 12 µg/mL.

Still in this assay, the particulars now being: read-out: IC50.
Take `C[C@H]1[C@H](C)CC[C@]2(C(=O)O)CC[C@]3(C)C(=CC[C@@H]4[C@@]5(C)CC[C@H](O)C(C)(C)[C@@H]5CC[C@]43C)[C@H]12` [URSOLIC ACID]: the IC50 stood at 15.8 µM.
As to `Cc1cc2c(c(O)c1-c1c(C)cc3c(c1O)C(=O)c1c(O)cc(O)cc1C3=O)C(=O)c1c(O)cccc1C2=O` [CASSIAMIN A], the IC50 is 41.8 µM.
Still for that read-out and setting: with `Oc1cc(O)c2c(c1)O[C@H](c1ccc(O)c(O)c1)[C@H](O)C2` [(-)-EPICATECHIN] the figure was greater than 20 µM.
